The structures appear in SMILES notation.

Results on 15 compounds are retold here after patent US5462936A, “Benzothiazepine derivatives” (Shionogi & Co., Ltd., priority 1991, dated 1995).

Assay [1] has as its system cultured cardiac cells. Nature of the assay: Anti-hypoxia action on cultured cardiac cells (inhibition of CPK leakage). It is filed as cell-based, rat (newborn Crj-SD). The following applies: Rattus norvegicus, read-out: Anti-hypoxia Activity (%), rate of inhibition on CPK leakage. Here is the method: Anti-hypoxia action of the compounds of the present invention were investigated through studying their action in connection with the protection of cardiomuscular cells.
Primary culture of cardiac cells was prepared from newborn Crj-SD rats (2-3 day old) and used in the experiment. The primary culture was prepared according to the method described by Jones R. L. et al., Am. J. Pathol., 135, 541-556, 1989. Thus, cardiac cells were isolated from ventricle muscle using collagenase and pancreatin, and then the cardiac cells were separated and purified from cell debris, erythrocytes, and fibroblasts by means of Percoll density-gradient centrifugation. The cells were spread on a culture plate at a ratio of 2-3×10^5 cells/3.5 cm plate, and the cells were cultured for two days in Dulbecco's Modified Eagle's Medium (DMEM) containing 10% Fetal Bovine Serum (FBS) in an incubator (5% CO2 /95% Air) kept at 37° C. After sufficient growth of the cardiac cells, the culture medium was changed to DMEM free from FBS, and the culture was continued additional one day. The cells thus obtained were used in the experiment.
Hypoxia was generated using Gas Pak™ Anaerobic Chamber (BBL) which produces hypoxia by capturing residual O2 and changing it into H2 0 by the action of a H2 /CO2 generating bag and catalyst. The cardiac cell plate, wherein the culture medium had been changed to DMEM which is free from FBS and glucose, was set in the chamber, and the chamber was placed in an incubator. Anti-hypoxia activity of test compounds was determined by measuring inhibition rate of leakage of creatine phosphokinase activity into the culture medium.
The compounds tested were all dissolved in DMSO using HCO-50 as a solubilizing agent (DMSO:HCO-50=9:1), and directly charged onto the culture plate. The final concentrations of DMSO and HCO-50 in the culture medium were adjusted to 0.09% and 0.01% respectively. CPK activity was measured by colorimetry (Wako Kit) modified from Oliver method.
The numerical values in the table show cardiac cells-protecting activity of test compounds in terms of the rate (%) of inhibition on CPK leakage determined in connection with the test compounds when the amount of the CPK leakage for negative control (no addition of the test compounds) was defined as 100%.

Assay [2] concerns the target Calcium Channel (Oryctolagus cuniculus, UniProt P15381). Nature of the assay: Calcium channel antagonism: relaxing action on extracted blood vessel (rabbit femoral artery, contracture by 50 mM KCl). The following applies: 50 mM KCl contracture, 50% of maximum relaxing (0.1 mM papaverine). How it is done: Calcium Channel Antagonism and […] Action (Relaxing Action on Extracted Blood Vessel)
Male rabbits weighing 2-3 kg (Rabiton, Japanese albino species) were anesthetized through intravenous administration of pentobarbital (50 mg/kg), and sacrificed by bloodletting through dissection of axillary artery. Femoral artery was extracted, connective tissue surrounding the artery was removed, and helical specimen was prepared. The specimen was suspended in an organ bath (20 cc) filled with 37° C. Krebs-Henseleit nutritious solution and bubbled with a 95% O2 +5% CO2 mixed gas. 1.5 g of resting tension was loaded on femoral artery. Isometric change of the tension of the specimen was recorded on a thermal recorder (Nippon Koden WT-685G) via F-D pickup Nippon Koden (TB611T) and Preamp (Nippon Koden). Ca-antagonism of a test compound was evaluated by observing relaxing action due to accumulative addition of the compound on the contracture caused by the application of 50 mM KCl. α-Blocking action was similarly evaluated by observing such relaxing action on the contracture caused by the application of 1 μM norepinephrine (NE). […] The concentration of a given compound, which is necessary for giving 50% of the maximum relaxing (IC50), was determined using the above system.

In assay [3] the test system is spontaneous hypertensive rats (SHR). The assay is described as follows: Action on blood pressure and heart rate of not-anesthetized SHR. It is filed as in vivo, rat (SHR). The following applies: 30 mg/kg PO, 2 and 4 hours after administration; for Antihypertensive action (%): decrease in SBP.
Experimental: Action of the compounds of the invention on blood pressure and heart rate of not-anesthetized spontaneous hypertensive rats (SHR)
Male Japanese Charles-River SHR (13-17 week old) were used in the experiment (S. Matsuda, J. Pharmacol. Method, 17 361, 1987). Systolic blood pressure (SBP) and heart rate of the animals were measured non-invasively (indirectly) using hemadynamometer for caudal artery pressure (6 channel type) before the administration of test compounds, at 2 and 4 hours after administration. Test compounds were dissolved in DMSO (100%) and orally administered. Decreased values in SBP and heart rate determined 2 and 4 hours after administration when compared with those determined before administration are shown in percentage (%) in the following table.
Assay [4] concerns cardiac muscle damage due to ischemia. The assay is described as follows: Anti-necrosis activity (left coronary ligation and reperfusion, CPK retention in left ventricle). It is filed as in vivo, rat (Wistar). The following applies: Rattus norvegicus. How it is done:
Male Sic Wistar rats weighing 200-250 g were anesthetized with urethane (1 g/kg), and ramus descendens of the left coronaria was ligated for 20 minutes and then reperfused according to the method described by Hock et al (Hock, […]., Am. Heart J., 109 222, 1985). […] For three hours after the reperfusion, the rats were subjected to heat insulation on a warming mat. After 120 minutes, the hearts were extracted, and the free walls of the left ventricles were frozen and storred until determination of CPK activity. CPK activity was determined according to the method of Bernauer, W. (Arch. int. Pharmacodyn., 231 90, 1978) after minor modification. Thus, the extracted tissue was homogenized in 10 volumes of 0.1M Tris/HCl (pH 7.5) containing 1 mM mercaptoethanol and centrifuged at 20,000 g for 20 minutes. The supernatant was used for determination of CPK activity, which was conducted using a commercially available kit (CPK-Test, Wako). CPK was determined using serum CPK as a standard and expressed with "U/mg protein". […] The degree of the inhibition was measured in terms of the CPK activity retained in the left ventricle. The test results are shown in Table 7, wherein percentage of the retention (%) at each dose was calculated based on the following equation.

Chain of Calcium Channel (P15381 whole entry): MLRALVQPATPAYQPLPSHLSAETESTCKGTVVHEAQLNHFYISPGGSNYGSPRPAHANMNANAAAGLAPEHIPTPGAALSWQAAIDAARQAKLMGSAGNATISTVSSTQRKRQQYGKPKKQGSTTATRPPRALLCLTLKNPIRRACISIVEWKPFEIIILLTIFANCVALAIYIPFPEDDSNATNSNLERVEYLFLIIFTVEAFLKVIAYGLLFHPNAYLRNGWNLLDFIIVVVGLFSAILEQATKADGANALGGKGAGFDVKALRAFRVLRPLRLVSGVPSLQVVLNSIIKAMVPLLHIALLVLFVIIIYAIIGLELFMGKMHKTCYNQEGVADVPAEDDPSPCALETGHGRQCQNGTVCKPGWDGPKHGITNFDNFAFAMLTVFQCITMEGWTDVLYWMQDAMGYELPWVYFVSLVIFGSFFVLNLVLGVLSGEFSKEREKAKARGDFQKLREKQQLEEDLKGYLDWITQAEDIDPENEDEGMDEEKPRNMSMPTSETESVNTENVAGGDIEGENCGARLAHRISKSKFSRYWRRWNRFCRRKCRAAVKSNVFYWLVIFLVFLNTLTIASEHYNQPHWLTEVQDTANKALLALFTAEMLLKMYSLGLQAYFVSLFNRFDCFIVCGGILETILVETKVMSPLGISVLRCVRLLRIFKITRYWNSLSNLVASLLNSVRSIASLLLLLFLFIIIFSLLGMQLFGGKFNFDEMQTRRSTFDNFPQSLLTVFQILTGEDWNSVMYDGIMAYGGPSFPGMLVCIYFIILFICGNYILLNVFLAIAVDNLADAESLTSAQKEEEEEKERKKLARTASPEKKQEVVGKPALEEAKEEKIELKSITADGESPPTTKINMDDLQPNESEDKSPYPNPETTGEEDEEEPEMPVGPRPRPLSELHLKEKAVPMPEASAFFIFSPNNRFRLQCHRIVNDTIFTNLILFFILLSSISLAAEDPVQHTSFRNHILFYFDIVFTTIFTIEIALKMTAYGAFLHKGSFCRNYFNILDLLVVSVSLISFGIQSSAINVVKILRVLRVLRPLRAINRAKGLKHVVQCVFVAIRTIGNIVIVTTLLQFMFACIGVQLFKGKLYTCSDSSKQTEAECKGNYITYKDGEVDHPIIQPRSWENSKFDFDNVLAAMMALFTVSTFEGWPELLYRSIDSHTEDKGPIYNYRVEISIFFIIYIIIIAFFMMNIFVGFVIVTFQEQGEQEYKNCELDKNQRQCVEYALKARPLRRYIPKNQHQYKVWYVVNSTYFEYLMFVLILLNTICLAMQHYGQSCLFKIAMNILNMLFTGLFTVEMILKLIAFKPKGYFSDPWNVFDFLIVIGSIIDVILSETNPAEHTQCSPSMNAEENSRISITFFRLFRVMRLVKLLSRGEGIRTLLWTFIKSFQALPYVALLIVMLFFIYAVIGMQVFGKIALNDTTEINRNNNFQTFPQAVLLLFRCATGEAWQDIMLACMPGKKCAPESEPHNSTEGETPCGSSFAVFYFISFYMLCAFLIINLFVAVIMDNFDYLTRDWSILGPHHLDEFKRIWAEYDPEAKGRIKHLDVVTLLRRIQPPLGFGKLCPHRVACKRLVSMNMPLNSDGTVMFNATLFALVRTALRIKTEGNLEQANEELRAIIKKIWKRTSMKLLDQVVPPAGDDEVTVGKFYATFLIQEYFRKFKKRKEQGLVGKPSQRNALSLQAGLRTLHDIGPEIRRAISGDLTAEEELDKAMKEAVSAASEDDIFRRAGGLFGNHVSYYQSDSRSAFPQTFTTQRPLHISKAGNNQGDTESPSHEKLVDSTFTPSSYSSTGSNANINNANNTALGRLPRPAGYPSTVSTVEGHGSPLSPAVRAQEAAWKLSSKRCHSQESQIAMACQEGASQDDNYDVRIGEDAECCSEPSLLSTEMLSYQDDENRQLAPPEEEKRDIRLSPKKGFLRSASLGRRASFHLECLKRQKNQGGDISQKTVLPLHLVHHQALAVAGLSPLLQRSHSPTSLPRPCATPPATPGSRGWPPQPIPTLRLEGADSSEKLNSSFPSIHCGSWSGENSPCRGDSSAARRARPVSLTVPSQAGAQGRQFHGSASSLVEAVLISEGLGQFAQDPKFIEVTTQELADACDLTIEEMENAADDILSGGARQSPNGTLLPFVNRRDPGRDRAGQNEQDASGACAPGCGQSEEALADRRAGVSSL
Chain of Calcium Channel (P13806 27-960 partner limits assumed): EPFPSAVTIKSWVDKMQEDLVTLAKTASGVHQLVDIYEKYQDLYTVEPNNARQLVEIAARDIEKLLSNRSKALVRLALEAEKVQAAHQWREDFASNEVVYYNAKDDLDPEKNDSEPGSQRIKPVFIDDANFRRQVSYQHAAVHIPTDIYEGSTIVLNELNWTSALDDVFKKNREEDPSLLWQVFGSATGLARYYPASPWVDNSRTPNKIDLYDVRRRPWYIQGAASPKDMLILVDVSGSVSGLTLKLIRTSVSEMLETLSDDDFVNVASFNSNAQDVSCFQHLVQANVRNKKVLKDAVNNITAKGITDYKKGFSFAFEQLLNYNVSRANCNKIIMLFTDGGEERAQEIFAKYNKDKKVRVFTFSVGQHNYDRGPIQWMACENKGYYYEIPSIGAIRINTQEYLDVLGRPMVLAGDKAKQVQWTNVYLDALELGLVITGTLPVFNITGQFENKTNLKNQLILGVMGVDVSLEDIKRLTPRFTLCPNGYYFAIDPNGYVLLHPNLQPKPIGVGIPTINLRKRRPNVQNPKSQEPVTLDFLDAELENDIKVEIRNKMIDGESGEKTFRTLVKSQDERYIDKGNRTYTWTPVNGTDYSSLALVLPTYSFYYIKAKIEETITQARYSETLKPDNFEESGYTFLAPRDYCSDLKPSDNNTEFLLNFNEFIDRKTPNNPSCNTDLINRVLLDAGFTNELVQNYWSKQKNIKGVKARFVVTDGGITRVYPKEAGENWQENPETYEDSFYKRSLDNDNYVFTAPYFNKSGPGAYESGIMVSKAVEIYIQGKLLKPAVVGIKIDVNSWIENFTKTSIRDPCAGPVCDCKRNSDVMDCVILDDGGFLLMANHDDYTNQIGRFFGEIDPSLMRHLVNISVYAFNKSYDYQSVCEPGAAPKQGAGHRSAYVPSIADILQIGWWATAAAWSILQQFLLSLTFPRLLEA
Chain of Calcium Channel (P13806 961-1106 partner limits assumed): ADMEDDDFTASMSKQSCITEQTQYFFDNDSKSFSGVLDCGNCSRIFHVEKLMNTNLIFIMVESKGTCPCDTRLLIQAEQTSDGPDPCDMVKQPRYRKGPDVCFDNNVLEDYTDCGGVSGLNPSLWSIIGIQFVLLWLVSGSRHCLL

As for `COc1ccc([C@@H]2Sc3cc(Cl)ccc3N(CCCN3CCN(c4ccccc4)CC3)C(=O)[C@@H]2OC(C)=O)cc1` (relative stereo) [Compound I-1, 3-Acetoxy-5-[3-(4,phenyl-1-piperazinyl)propyl]-2,3-dihydro-2-(4-metoxyphenyl)-8-chloro-1,5-benzothiazepin-4(5H)-one], the inhibition (in general, the change of the read-out against control, counted positive when it falls) at 10 µM in assay [1] came out at 66%.
For `COc1ccc([C@@H]2Sc3cc(Cl)ccc3N(CCN3CCC(c4ccccc4)CC3)C(=O)[C@@H]2OC(C)=O)cc1` (relative stereo) [Compound I-11], the IC50 (commonly the concentration at which inhibition is half-maximal) in assay [2] was 200 nM.
Turning to `COc1ccc([C@@H]2Sc3cc(Cl)ccc3N(CCCN3CCC(c4ccccc4)(c4ccccc4)CC3)C(=O)[C@@H]2OC(C)=O)cc1` (relative stereo) [Compound I-14, 3-Acetoxy-5-[3-(4,4-diphenyl-1piperizinyl)propyl]-2,3-dihydro-2-(4-methoxyphenyl)-8-chloro-1,5-benzothiazepin-4(5H)-one], the inhibition at 10 µM in assay [1] came to 83.6%. For the same compound, the IC50 in assay [2] came out at 100 nM. For the same compound, in assay [3], the “Decrease of heart rate (%)” value turned out to be 9.8% and the “Antihypertensive action (%)” value was found to be 14%.
`COc1ccc([C@@H]2Sc3cc(Cl)ccc3N(CCCN3CCN(c4ccc(OC)cc4)CC3)C(=O)[C@@H]2OC(C)=O)cc1` [Compound I-29, (2S-cis)-3-Acetoxy-5-[3-(4-(4methoxyphenyl) -1-piperazinyl)propyl]methoxyphenyl-8-chloro-1,5-benzothiazepin-4(5H)-one]: the inhibition at 1 µM in assay [1] is 30%.
Take `COc1ccc([C@@H]2Sc3cc(Cl)ccc3N(CCCN3CCN(c4cc(OC)c(OC)c(OC)c4)CC3)C(=O)[C@@H]2OC(C)=O)cc1` [Compound I-32, (2S-cis)-3-Acetoxy-5-[3-(4-(3,4,5trimethoxyphenyl) - 1-piperazinyl)propyl]-2,3-dihydro-2-(4methoxyphenyl) -8-chloro-1,5-benzothiazepin-4 (5H)-one]: in assay [1], the inhibition at 10 µM was 66.1%.
Take `COc1ccc([C@@H]2Sc3cc(Cl)ccc3N(CCCN3CCN(C(c4ccccc4)c4ccc(Cl)cc4)CC3)C(=O)[C@@H]2OC(C)=O)cc1` (relative stereo) [Compound I-16, 3-Acetoxy-5-[3-(4-(4-chlorobenzhydryl)-piperazinyl)propyl]-2,3-dihydro-2-(4-methoxyphenyl)-8-chloro-1,5-benzothiazepin-4(5H)-one]: in assay [1], the inhibition at 1 µM came out at 18.4% and the inhibition at 10 µM stood at 57%. In assay [2], the IC50 amounted to 240 nM. Also, in assay [3], the “Decrease of heart rate (%)” value was 15% and the “Antihypertensive action (%)” value is given as 19%.
Regarding `COc1ccc([C@@H]2Sc3cc(Cl)ccc3N(CCCN3CCN(c4ccc(Cl)cc4)CC3)C(=O)[C@@H]2OC(C)=O)cc1` [Compound I-25, (2S-cis)-3-Acetoxy-5-[3-(4-(4-chlorophenyl)-1-piperazinyl)propyl]-2,3-dihydro-2-(4-methoxyphenyl)-8-chloro-l,5-benzothiazepin-4(5H)-one], in assay [1], the inhibition at 1 µM was 25.2% and the inhibition at 10 µM was 89%.
Consider `COc1ccc([C@@H]2Sc3cc(Cl)ccc3N(CCCN3CCN(c4ccc(F)cc4)CC3)C(=O)[C@@H]2OC(C)=O)cc1` (relative stereo) [Compound I-12, 3-Acetoxy-5-[3-(4-(4-fluorophenyl)-piperazinyl)propyl]-2,3-dihydro-2-(4-methoxyphenyl)-8-chloro-1,5-benzothiazepin-4(5H)-one], for which, in assay [1], the inhibition at 1 µM came to 10% and the inhibition at 10 µM came to 87%. In addition, the inhibition in vivo (usually how much of the control response was suppressed) at 1 mg/kg in assay [4] (1 mg/kg iv) turned out to be 23%.
As to `COc1ccc([C@@H]2Sc3cc(Cl)ccc3N(CCCCN3CCN(c4ccccc4OC)CC3)C(=O)[C@@H]2OC(C)=O)cc1` [Compound I-33, (2S-cis)-3-Acetoxy-5-[4-(4-(2-methoxyphenyl)-1-piperazinyl)butyl]-2,3-dihydro-2-(4-methoxyphenyl)-8-chloro-1,5-benzothiazepin-4(5H)-one], in assay [1], the inhibition at 1 µM is 36.9% and the inhibition at 10 µM amounted to 87%.
For the compound `COc1ccc([C@@H]2Sc3cc(Cl)ccc3N(CCCN3CCN(C(c4ccc(Cl)cc4)c4ccc(Cl)cc4)CC3)C(=O)[C@@H]2OC(C)=O)cc1` [Compound I-24, (2S-cis)-3-Acetoxy-5-[3-(4-(4-dichlorobenzhydryl)-1-piperazinyl)propyl]-2,3-dihydro-2-(4-methoxyphenyl)-8-chloro-l,5-benzothiazepin-4(5H)-one], in assay [1], the inhibition at 1 µM came out at 14.1% and the inhibition at 10 µM came out at 88%. The same compound returned an inhibition in vivo at 0.3 mg/kg in assay [4] (0.3 mg/kg iv) of 35%.
As to `COc1ccc([C@@H]2Sc3cc(Cl)ccc3N(CCN3CCN(c4ccc(F)cc4)CC3)C(=O)[C@@H]2OC(C)=O)cc1` (relative stereo) [Compound I-13, 3-Acetoxy-5-[2-(4-(4-fluorophenyl)-piperazinyl)ethyl]-2,3-dihydro-2-(4-methoxyphenyl)-8-chloro-1,5-benzothiazepin-4(5H)-one], in assay [1], the inhibition at 1 µM is 15% and the inhibition at 10 µM was 61%.
As for `COc1ccc([C@@H]2Sc3cc(Cl)ccc3N(CCCN3CCN(C(=O)c4ccco4)CC3)C(=O)[C@@H]2OC(C)=O)cc1` (relative stereo) [Compound I-7, 3-Acetoxy-5-[3-(4-(2-furoyl)-1-piperazinyl)propyl]-2,3-dihydro-2-(4-methoxyphenyl)-8-chloro-1,5-benzothiazepin-4(5H)-one], in assay [1], the inhibition at 1 µM turned out to be 36%.
For the compound `COc1ccc([C@@H]2Sc3cc(Cl)ccc3N(CCCN3CCN(c4ccccn4)CC3)C(=O)[C@@H]2OC(C)=O)cc1` (relative stereo) [Compound I-3, 3-Acetoxy-5-[3-(4-(2-piridyl)1-piperazinyl)propyl]-2,3-dihydro-2-(4-methoxyphenyl)-8-chloro-1,5-benzothiazepin-4(5H)-one], in assay [1], the inhibition at 1 µM was 34%.
On to `COc1ccc([C@@H]2Sc3cc(Cl)ccc3N(CCCN3CCN(Cc4ccc5c(c4)OCO5)CC3)C(=O)[C@@H]2OC(C)=O)cc1` (relative stereo) [Compound I-5], for which, in assay [1], the inhibition at 10 µM turned out to be 66%. In addition, in assay [2], the IC50 was 250 nM.
`COc1ccc([C@@H]2Sc3cc(Cl)ccc3N(CCCCCN3CCN(c4ccccc4OC)CC3)C(=O)[C@@H]2OC(C)=O)cc1` [Compound I-34, (2S-cis)-3-Acetoxy-5-[5-(4-(2-methoxyphenyl)-1-piperazinyl)pentyl]-2,3-dihydro-2-(4-methoxyphenyl)-8-chloro-l,5-benzothiazepin-4(5H)-one]: the inhibition at 10 µM in assay [1] came to 80%.
